Data reported in US6121296A, “Transition-state inhibitors for nucleoside hydrolase and transferase reactions” (Albert Einstein College of Medicine of Yeshiva University, priority 1998, dated 2000).
“Also recorded” adds a separate entry of the source. Where two headings read alike, the source gives them in different places.

Assays:
nucleoside hydrolase = target: T1, nucleoside hydrolase (Crithidia fasciculata, UniProt Q27546); assay: Nucleoside hydrolase purified from C. fasciculata: substrate kinetics and inhibition (Table III); assay type: biochemical; conditions: for Substrate or inhibitor concentration (substrate activity limit; nucleoside concentration in parentheses): Table III lower part; for inhibition pattern: vs inosine
T1 construct: nucleoside hydrolase was purified from C. fasciculata as described above; endogenous in cells; host or cells: Crithidia fasciculata cells grown in a 300-liter fermenter
T1 sequence (Q27546 1-315): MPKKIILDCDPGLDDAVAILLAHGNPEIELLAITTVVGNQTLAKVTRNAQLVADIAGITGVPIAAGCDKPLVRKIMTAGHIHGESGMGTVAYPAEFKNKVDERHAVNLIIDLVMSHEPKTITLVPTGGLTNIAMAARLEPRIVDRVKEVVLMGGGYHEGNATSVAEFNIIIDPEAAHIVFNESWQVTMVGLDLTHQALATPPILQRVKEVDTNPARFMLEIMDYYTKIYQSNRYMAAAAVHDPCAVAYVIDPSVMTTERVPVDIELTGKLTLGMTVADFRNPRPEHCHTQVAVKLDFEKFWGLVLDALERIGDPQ
Protocol: The assay volumes were […]. The reaction was terminated by the addition of […] of 1.0 M HCl. […] The color was developed at 95° C. for 8 minutes and the optical absorbance measured at 450 nm. Enzymatic activity was expressed as millimoles of reducing sugar formed per minute per milligram of protein. During the initial stages of purification a modified assay which removes excess protein was used. Protein solutions of 1-5 ml were added to 100 ml of the assay mixture and incubated for the desired time. The assay was terminated by the addition of […] of 0.1 M ZnSO4. Excess Zn^2+ was removed by the addition of […] of 0.1 M NaOH. After centrifugation, 250 ml of supernatant was removed and assayed for reducing sugar. […] Arsenate readily replaces phosphate in the reaction and the product ribose 1-arsenate rapidly hydrolazes to release ribose which is detected in the reducing sugar assay.
At other pH values, a mixed buffer system was used which contained 30 mM each of acetate. Mes, Pipes, Hepes, Bicine, and Ches were adjusted to the desired pH with HCl or NaOH. The reaction was initiated with a small volume of enzyme and the increase in absorbance recorded at 280 nm.
Assay mixtures of 19 ml contained the desired concentration of inosine and inhibitor(s) together with approximately 3×10^4 cpm of radioactive inosine in 50 mM Hepes or triethanolamine buffer, pH 7.3. […] Samples of […] were removed at the appropriate intervals and spotted on polyethyleneimine cellulose thin layer plates which had been previously spotted with 4 ml of a solution containing 2.2 mM each of inosine and hypoxanthine.
Reaction mixtures were incubated for 5-27 hours and samples analyzed on a 7.8 mm×30 cm C18 -HPLC column eluted with 5 or 10% methanol in H2 O, 4 ml/minute. Samples were detected by the absorbance at 257 nm. Substrate activity with deoxyinosine was also measured at 500 MHz by NMR. […] Proton NMR spectra were collected in sets of eight scans over 15 minutes at room temperature.
Apparent inhibition constants (Ki(app)) were determined from the relationship shown in the following equation:
Vo /Vi +(inosine±Km (1+I/Ki(app))/(inosine+Km)
where Vo and Vi are the initial reaction rates without and with inhibitor, respectively. Km is the Michaelis constant for inosine, I is inhibitor concentration and Ki(app) is the apparent dissociation constant for inhibitor. In cases where the inhibitor is competitive with respect to substrate, Ki(app) is the dissociation constant for the enzyme-inhibitor complex.

IAG-nucleoside hydrolase = IAG-nucleoside hydrolase (Trypanosoma brucei, UniProt Q57ZL6); assay: Inhibition of IAG-nucleoside hydrolase, initial rates; conditions: for inhibition at highest concentration tested: 80, 120, 120 and 160 μM II, III, IV and VI respectively, 75 μM inosine
Chain of IAG-nucleoside hydrolase (Q57ZL6 entry or part of it): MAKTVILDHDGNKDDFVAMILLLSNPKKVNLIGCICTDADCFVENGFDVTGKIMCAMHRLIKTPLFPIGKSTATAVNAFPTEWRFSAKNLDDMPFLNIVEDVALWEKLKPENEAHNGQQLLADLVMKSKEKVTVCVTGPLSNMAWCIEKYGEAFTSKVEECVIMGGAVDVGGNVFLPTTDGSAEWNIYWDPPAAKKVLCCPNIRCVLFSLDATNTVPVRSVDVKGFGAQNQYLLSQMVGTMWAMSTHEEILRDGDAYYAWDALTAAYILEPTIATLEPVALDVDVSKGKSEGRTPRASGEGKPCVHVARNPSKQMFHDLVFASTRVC
Protocol: The enzyme was purified to apparent homogeneity as determined by denaturing polyacrylamide gel electrophoresis (Parkin, (1996) J. Biol. Chem. 271, 21713-21719). Some of the studies used the T. brucei brucei enzyme which was overexpressed in E. coli.
Enzyme Assays. Initial rate measurements were accomplished at 30° C. in reaction mixtures containing 50 mM potassium phosphate, pH 7.5, or 50 mM Hepes, pH 8.0, and nitrophenylribose or inosine as substrates (Mazella, et al. (1996) J. Am. Chem. Soc. 118, 2111-2112). At pH 7.5 the product p-nitrophenylate anion is present at a concentration which gives a millimolar extinction coefficient of 9.3 cm^-1 at 400 nm. Reaction mixtures with nitrophenylribose as substrate were initiated by the addition of enzyme, and product formation was monitored by continuous recording at 400 nm. With inosine as substrate, the conversion to hypoxanthine was monitored continuously at 280 nm (Parkin, et al. (1991) J. Biol. Chem. 266, 20658-20665). […] The remainder of the inhibitors were analyzed at one fixed substrate concentration and variable inhibitor concentrations. […] The remainder of the inhibition constants were characterized by titration of assay mixtures containing a fixed concentration of substrate with variable inhibitor concentrations. […] For Ki determination at a fixed substrate concentration, this approach assumes that substrate and inhibitor compete for the catalytic site.
Inhibitors. Iminoribitol inhibitor were synthesized and purified according to the methods of Furneaux, et al. (Tetrahedron (1997) in press), characterized by NMR, dissolved in H2 O and stored at -20° C.

IU-nucleoside hydrolase = target: T2, IU-nucleoside hydrolase (Crithidia fasciculata, UniProt Q27546, P2A); assay: biochemical; assay type: biochemical, C. fasciculata; conditions: KI IU-nucleoside hydrolase, Table V
T2 construct: contained the coding region for the enzyme; made in house; host or cells: E. coli BL21 (DE3)pLysS, pET3d plasmid
T2 sequence (Q27546 whole entry P2A): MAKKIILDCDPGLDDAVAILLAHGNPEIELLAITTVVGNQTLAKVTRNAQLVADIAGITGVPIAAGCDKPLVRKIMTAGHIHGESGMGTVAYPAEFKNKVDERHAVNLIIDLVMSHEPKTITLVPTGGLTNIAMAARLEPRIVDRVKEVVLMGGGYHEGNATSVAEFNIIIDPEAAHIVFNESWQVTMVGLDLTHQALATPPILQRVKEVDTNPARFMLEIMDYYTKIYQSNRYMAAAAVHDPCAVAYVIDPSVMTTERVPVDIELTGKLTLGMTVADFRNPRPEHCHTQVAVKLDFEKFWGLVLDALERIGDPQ
From the text: Enzymes. Inosine-uridine nucleoside hydrolase (IU-nucleoside hydrolase) was purified from extracts of E. coli strain BL21 (DE3)pLysS which contained the coding region for the enzyme isolated from C. fasciculata in a pET3d expression plasmid. The DNA coding for the enzyme was placed in the NcoI-BamHI site. This construct gives a Pro2Ala substitution which has no significant effect on the kinetic properties of the purified enzyme. The overexpressed enzyme was purified to apparent homogeneity as previously described (Gopaul, et al. (1996) Biochemistry 35, 5963-5970).
Enzyme Assays. Initial rate measurements were accomplished at 30° C. in reaction mixtures containing 50 mM potassium phosphate, pH 7.5, or 50 mM Hepes, pH 8.0, and nitrophenylribose or inosine as substrates (Mazella, et al. (1996) J. Am. Chem. Soc. 118, 2111-2112). At pH 7.5 the product p-nitrophenylate anion is present at a concentration which gives a millimolar extinction coefficient of 9.3 cm^-1 at 400 nm. Reaction mixtures with nitrophenylribose as substrate were initiated by the addition of enzyme, and product formation was monitored by continuous recording at 400 nm. With inosine as substrate, the conversion to hypoxanthine was monitored continuously at 280 nm (Parkin, et al. (1991) J. Biol. Chem. 266, 20658-20665). […] The remainder of the inhibitors were analyzed at one fixed substrate concentration and variable inhibitor concentrations. Inhibition constants for IAG-nucleoside hydrolase were established from full kinetic analysis with V and X as inhibitors. […] The remainder of the inhibition constants were characterized by titration of assay mixtures containing a fixed concentration of substrate with variable inhibitor concentrations. […] For Ki determination at a fixed substrate concentration, this approach assumes that substrate and inhibitor compete for the catalytic site.
Inhibitors. Iminoribitol inhibitor were synthesized and purified according to the methods of Furneaux, et al. (Tetrahedron (1997) in press), characterized by NMR, dissolved in H2 O and stored at -20° C. The compounds are enzymatically and chemically stable in H2 O and under conditions of the assay. IU-Nucleoside hydrolase is susceptible to slow-onset tight-binding inhibition under certain conditions (Horenstein & Schramm, (1993b) Biochemistry 32, 9917-9925, Boutellier, et al. (1994) Biochemistry, 33, 3994-4000). However, in the initial reaction rate conditions described here, only the rapidly reversible competition between substrate and inhibitor is being observed. Thus, the reported kinetic constants are dissociation constants which exclude slow-onset binding.

## Nc1ncnc2c1ncn2[C@@H]1O[C@H](CO)C[C@H]1O [3'-d-Adenosine]
Nucleoside hydrolase
  Ki: 7290 µM
  Substrate or inhibitor concentration (substrate activity limit; nucleoside concentration in parentheses): < 0.16

## CSC[C@H]1O[C@@H](n2cnc3c(N)ncnc32)[C@H](O)[C@@H]1O [5'-Methylthioadenosine]
Nucleoside hydrolase
  Ki: 5700 µM
  Substrate or inhibitor concentration (substrate activity limit; nucleoside concentration in parentheses): < 0.0003

## C[C@H]1O[C@@H](n2cnc3c(N)ncnc32)[C@H](O)[C@@H]1O [5d-adenosine, 5'-Deoxyadenosine]
Nucleoside hydrolase
  substrate activity: Low rates of product formation

## C[C@H]1O[C@@H](n2cnc3c(=O)[nH]cnc32)[C@H](O)[C@@H]1O [5d-inosine]
Nucleoside hydrolase
  substrate activity: Low rates of product formation

## Nc1ncnc2c1ccn2[C@@H]1O[C@H](CO)[C@@H](O)[C@H]1O [7-Deazaadenosine, 7-deazaadenosine]
Nucleoside hydrolase
  Ki: 2300 µM
  rate of hydrolysis relative to the rate with inosine (detection level): < 3×10^-4
  Substrate or inhibitor concentration (substrate activity limit; nucleoside concentration in parentheses): < 0.0008
  inhibition pattern: competitive inhibitor
Nucleoside hydrolase; listed as tubercidin
  substrate activity: not a substrate; also recorded: lack of substrate activity

## Nc1ncnc2c1ncn2[C@@H]1O[C@H](COP(=O)(O)O)[C@@H](O)[C@H]1O [AMP]
Nucleoside hydrolase
  Ki: 44000 µM
  Substrate or inhibitor concentration (substrate activity limit; nucleoside concentration in parentheses): < 0.01

## O=c1[nH]cnc2c([C@@H]3O[C@H](CO)[C@@H](O)[C@H]3O)n[nH]c12 [Formycin B]
Nucleoside hydrolase
  Ki: 1960 µM
  Substrate or inhibitor concentration (substrate activity limit; nucleoside concentration in parentheses): < 0.02

## O=c1[nH]cnc2nc[nH]c12 [Hypoxanthine]
Nucleoside hydrolase
  Ki: 6200 ± 900 µM
  inhibition pattern: slope-linear, competitive patterns

## O=[N+]([O-])c1cccc([C@@H]2N[C@H](CO)[C@@H](O)[C@H]2O)c1 [III]
IAG-nucleoside hydrolase
  Ki: > 360 µM
  Km /KI IAG-nucleoside hydrolase: < 0.05
  inhibition at highest concentration tested: NO inhibition was observed
IU-nucleoside hydrolase
  Ki: 7.5 ± 0.5 µM

## O=[N+]([O-])c1ccc([C@@H]2N[C@H](CO)[C@@H](O)[C@H]2O)cc1 [IV]
IAG-nucleoside hydrolase
  Ki: > 360 µM
  Km /KI IAG-nucleoside hydrolase: < 0.05
  inhibition at highest concentration tested: NO inhibition was observed
IU-nucleoside hydrolase
  Ki: 1.1 ± 0.1 µM

## Nc1cccc([C@@H]2N[C@H](CO)[C@@H](O)[C@H]2O)c1 [IX]
IAG-nucleoside hydrolase
  Ki: 38 ± 4 µM
  Km /KI IAG-nucleoside hydrolase: 0.47
IU-nucleoside hydrolase
  Ki: 0.051 ± 0.004 µM
